In patent publication US12264134B2 (Merck Sharp & Dohme LLC, priority 2018, dated 2025):

How the values were obtained:
IDO1 [1] = target: T1, IDO1 (Homo sapiens, UniProt P14902); test: IDO1 Cellular Assay in HeLa Cells Stimulated with IFNγ; assay type: cell-based; settings: read-out: HeLa Cell Potency, IC50
IDO1 [2] = target: T1, IDO1; test: IDO1 Human Whole blood Assay; assay type: cell-based; design: Human whole blood was drawn in sodium heparin coated tubes from healthy internal donors; from tissue; host or cells: human whole blood from healthy donors, stimulated with LPS and IFNγ; settings: LPS and IFNγ stimulated, 18 h, read-out: Human Whole Blood Potency, IC50
Protocol: IDO1Human Whole blood Assay
Compounds to be tested were serially diluted in ten 3-fold steps in DMSO starting from 10 mM. 3 μL of compound dilutions or DMSO alone were then dispensed from the dilution plate into a polypropylene 96-well assay plate containing 97 μL of RPMI medium using an Echo 555 acoustic liquid handler (Labcyte). LPS and IFNγ was prepared in RPMI medium to a 10× of final conc. (1000 ng/mL), final concentration is 100 ng/mL.
Human whole blood was drawn in sodium heparin coated tubes from healthy internal donors. 240 μL of blood was transferred to each of the wells of a v-bottom 96 well plate. 30 μL of compound was transferred from intermediate dilution plate, and incubated for 15 min. 30 μL from stimulants was then transferred to blood and mixed thoroughly. Plate was covered with breathable membrane and incubated at 37° C. for overnight (18 h).
On day 2, isotope labeled standard solutions of kynurenine and tryptophan was made in water at 10× concentration and 30 μL was added to the blood at 3 μM final concentration. The assay plates were centrifuged at 300×G for 10 min with no brake to separate plasma from red blood cells. 60 μL of plasma samples was removed without disturbing red blood cells. Plasma was diluted with RPMI in 1:1 ratio and proteins were precipitated out with two volumes of Acetonitrile. The plates were centrifuged at 4000×G for 60 min. 20 μL of supernatant was carefully transferred to a 384 well plate containing 40 μL of 0.1% formic acid in water and analyzed by LC/MS/MS.
LC/MS/MS analyses were performed using Thermo Fisher's LX4-TSQ Quantum Ultra system. This system consists of four Agilent binary high-performance liquid chromatography (HPLC) pumps and a TSQ Quantum Ultra triple quadrupole MS/MS instrument. For each sample, 5 μL were injected onto an Atlantis T3 column (2.1 mm×150 mm, 3 μm particle size) from Waters. The mobile phase gradient pumped at 0.8 mL/min was used to elute the analytes from the column at 25° C. The elution started at 0% B increasing linearly to 25% B at 6.5 min, holding at 25% for 1 min, re-equilibrating to 10 min. Mobile phase A consisted of 0.1% formic acid in water. Mobile phase B consisted of 0.1% of formic acid in acetonitrile. Data were acquired in positive mode using a HESI interface. The operational parameters for the TSQ Quantum Ultra instrument were a spray voltage of 4000 V, capillary temperature of 380° C., vaporizer temperature 400° C., shealth gas 60 arbitrary units, Aux gas 20 arbitrary units, tube lens 85 and collision gas 1.2 mTorr. SRM chromatograms of kynurenine (Q1: 209.2>Q3:94.0) and internal standard (Q1: 215.3>Q3:98.2) were collected for 90 sec. The peak area was integrated by Xcalibur Quan software. The ratios between the kynurenine generated in the reaction and 2D6-Kynurenine spiked-in internal standard were used to generate percentage inhibition and IC50 values. Compounds were titrated and IC50's were calculated by 4 parameter sigmoidal curve fitting formula.

T1 sequence (P14902 whole entry): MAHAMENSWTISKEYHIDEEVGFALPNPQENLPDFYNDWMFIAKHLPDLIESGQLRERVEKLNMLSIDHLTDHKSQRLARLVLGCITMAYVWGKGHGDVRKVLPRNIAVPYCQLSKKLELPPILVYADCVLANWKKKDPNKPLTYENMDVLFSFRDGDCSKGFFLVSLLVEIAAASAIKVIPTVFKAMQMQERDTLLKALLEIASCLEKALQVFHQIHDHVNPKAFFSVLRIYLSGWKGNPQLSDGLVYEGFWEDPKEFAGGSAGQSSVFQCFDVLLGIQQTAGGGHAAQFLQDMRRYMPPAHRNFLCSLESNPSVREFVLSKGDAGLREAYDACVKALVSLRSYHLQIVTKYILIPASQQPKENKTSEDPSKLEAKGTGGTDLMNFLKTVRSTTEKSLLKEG

Structure (SMILES) | IC50 (IDO1 [1]) | IC50 (IDO1 [2])
Cc1cccc(N2CCN(C(=O)Cn3nc(C(=O)N4CCC(O)C(F)C4)c4c3CCC4)C3(CC3)C2)c1C (single isomer, unassigned) [Example 329, 1-[7-(2,3-dimethylphenyl)-4,7-diazaspiro[2.5]octan-4-yl]-2-[3-(3-fluoro-4-hydroxy-piperidine-1-carbonyl)-5,6-dihydro-4H-cyclopenta[c]pyrazol-1-yl]ethanone] | 7.2 nM | 904 nM
Cc1c(F)ccc(N2CCN(C(=O)Cn3nc(C(=O)N4CCN(CC(N)=O)CC4)c4c3C[C@H]3C[C@@H]43)C3(CC3)C2)c1C [Example 322, 2-{4-[(3bR,4aR)-1-{2-[7-(4-fluoro-2,3-dimethylphenyl)-4,7-diazaspiro[2.5]octan-4-yl]-2-oxoethyl}-3b,4,4a,5-tetrahydro-1H-cyclopropa[3,4]cyclopenta[1,2-c]pyrazole-3-carbonyl]piperazin-1-yl}acetamide] | 1.6 nM | 1050 nM
Cc1c(F)ccc(N2CCN(C(=O)Cn3nc(C(=O)N4CCC(O)C(CO)C4)c4c3C[C@@H]3C[C@H]43)C3(CC3)C2)c1C (stereo in doubt) [Example 324, 1-[7-(4-fluoro-2,3-dimethylphenyl)-4,7-diazaspiro[2.5]octan-4-yl]-2-{(3bS,4aS)-3-[4-hydroxy-3-(hydroxymethyl)piperidine-1-carbonyl]-3b,4,4a,5-tetrahydro-1H-cyclopropa[3,4]cyclopenta[1,2-c]pyrazol-1-yl}ethan-1-one] | 0.64 nM | 555 nM
Cc1cccc(N2CCN(C(=O)Cn3nc(C(=O)N4CCC5(CCOC5)CC4)c4c3CCC4)CC2)c1C [Example 93, 1-[4-(2,3-dimethylphenyl)piperazin-1-yl]-2-[3-(2-oxo-8-azaspiro[4.5]decane-8-carbonyl)-5,6-dihydrocyclopenta[c]pyrazol-1(4H)-yl]ethan-1-one] | 3.11 nM | 180 nM
Cc1c(F)ccc(N2CCN(C(=O)Cn3nc(C(=O)N4CCC(F)(CO)CC4)c4c3CCCC4)CC2)c1C [Example 458, 1-(4-(4-fluoro-2,3-dimethylphenyl)piperazin-1-yl)-2-(3-(4-fluoro-4-(hydroxy-methyl)piperidine-1-carbonyl)-4,5,6,7-tetrahydro-1H-indazol-1-yl)ethanone] | 0.95 nM | –
Cc1c(Cl)cccc1N1CCN(C(=O)Cn2nc(C(=O)N3CCN(C)C(C)C3)c3c2CCC(F)(F)C3)CC1 (centres unmarked) [Example 382] | 11.6 nM | –
Cc1ccc(N2CCN(C(=O)Cn3nc(C(=O)N4C[C@@H](C)O[C@@H](C)C4)c4c3CCC4)CC2)cc1Cl [Example 61, 1-[4-(3-chloro-4-methylphenyl)piperazin-1-yl]-2-{3-[(2R,6S)-2,6-dimethylmorpholine-4-carbonyl]-5,6-dihydrocyclopenta[c]pyrazol-1(4H)-yl}ethan-1-one] | 65.6 nM | –
Cc1cc(C#N)ccc1N1CCN(C(=O)Cn2nc(C(=O)N3C[C@@H](C)O[C@@H](C)C3)c3c2CCC3)CC1 [Example 26, 4-[4-[2-[3-[(2S,6R)-2,6-dimethylmorpholine-4-carbonyl]-5,6-dihydro-4H-cyclopenta[c]pyrazol-1-yl]acetyl]piperazin-1-ium-1-yl]-3-methyl-benzonitrile,2,2,2-trifluoroacetate] | 478 nM | –
Cc1c(Cl)cccc1N1CCN(C(=O)Cn2nc(C(=O)N3CC[C@@H](O)[C@@H](F)C3)c3c2CCC(F)C3)CC1 (stereo partly drawn) [Example 370, 1-(4-(3-chloro-2-methylphenyl)piperazin-1-yl)-2-(5-fluoro-3-((3S,4R)-3-fluoro-4-hydroxypiperidine-1-carbonyl)-4,5,6,7-tetrahydro-1H-indazol-1-yl)ethan-1-one] | 9.52 nM | –

Now from value to molecule:

IC50 (IDO1 [1]) | IC50 (IDO1 [2]) | Structure (SMILES)
2.9 nM | 292 nM | Cc1cccc(N2CCN(C(=O)Cn3nc(C(=O)N4CCC(NS(C)(=O)=O)CC4)c4c3CCC4)CC2)c1C [Example 90, N-[1-(1-{2-[4-(2,3-dimethylphenyl)piperazin-1-yl]-2-oxoethyl}-1,4,5,6-tetrahydrocyclopenta[c]pyrazole-3-carbonyl)piperidin-4-yl]methanesulfonamide]
5.8 nM | 9550 nM | Cc1cccc(N2CCN(C(=O)Cn3nc(C(=O)N4CC[C@@H](O)[C@H](F)C4)c4c3CCC4)CC2)c1C [Example 91, 1-[4-(2,3-dimethylphenyl)piperazin-1-yl]-2-{3-[(3R,4R)-3-fluoro-4-hydroxypiperidine-1-carbonyl]-5,6-dihydrocyclopenta[c]pyrazol-1(4H)-yl}ethan-1-one]
2.56 nM | 416 nM | Cc1cccc(N2CCN(C(=O)Cn3nc(C(=O)N4C[C@@H](C)O[C@@H](C)C4)c4c3CCC4)CC2)c1C [Example 88, 2-{3-[(2R,6S)-2,6-dimethylmorpholine-4-carbonyl]-5,6-dihydrocyclopenta[c]pyrazol-1(4H)-yl}-1-[4-(2,3-dimethylphenyl)piperazin-1-yl]ethan-1-one]
6.83 nM | 414 nM | Cc1cccc(N2CCN(C(=O)Cn3nc(C(=O)N4CCCC4)c4c3CCCCC4)CC2)c1C [Example 5, 1-[4-(2,3-dimethylphenyl)piperazin-4-ium-1-yl]-2-[3-(pyrrolidine-1-carbonyl)-5,6,7,8-tetrahydro-4H-cyclohepta[c]pyrazol-1-yl]ethanone]
0.8 nM | 335 nM | Cc1cccc(N2CCN(C(=O)Cn3nc(C(=O)N4CCC(F)(CO)CC4)c4c3C[C@H]3C[C@@H]43)C3(CC3)C2)c1C [Example 362, 1-(7-(2,3-dimethylphenyl)-4,7-diazaspiro[2.5]octan-4-yl)-2-((3bR,4aR)-3-(4-fluoro-4-(hydroxymethyl)piperidine-1-carbonyl)-3b,4,4a,5-tetrahydro-1H-cyclopropa[3,4]cyclopenta[1,2-c]pyrazol-1-yl)ethanone]
0.97 nM | 294 nM | Cc1cccc(N2CCN(C(=O)Cn3nc(C(=O)N4CC[C@@H](O)[C@@H](C)C4)c4c3C[C@H]3C[C@@H]43)CC2)c1C [Example 281, 1-[4-(2,3-dimethylphenyl)piperazin-1-yl]-2-{(3bR,4aR)-3-[(3S,4R)-4-hydroxy-3-methylpiperidine-1-carbonyl]-3b,4,4a,5-tetrahydro-1H-cyclopropa[3,4]cyclopenta[1,2-c]pyrazol-1-yl}ethan-1-one]
3.61 nM | 273 nM | Cc1cccc(N2CCN(C(=O)Cn3nc(C(=O)N4C[C@@H](C)N[C@@H](C)C4)c4c3C[C@H]3C[C@@H]43)CC2)c1C [Example 234, 1-[4-(2,3-dimethylphenyl)piperazin-1-yl]-2-{(3bR,4aR)-3-[(3R,5S)-3,5-dimethylpiperazine-1-carbonyl]-3b,4,4a,5-tetrahydro-1H-cyclopropa[3,4]cyclopenta[1,2-c]pyrazol-1-yl}ethan-1-one]
4.26 nM | 126 nM | Cc1cccc(N2CCN(C(=O)Cn3nc(C(=O)N4CCC(O)CC4)c4c3C[C@H](C(F)F)C4)CC2)c1C (single isomer, unassigned) [Example 9]
0.83 nM | – | CC(=O)N(C)C1CCN(C(=O)c2nn(CC(=O)N3CCN(c4cccc(C)c4C)CC3)c3c2[C@@H]2C[C@@H]2C3)CC1 [Example 256, N-{1-[(3bR,4aR)-1-{2-[4-(2,3-dimethylphenyl)piperazin-1-yl]-2-oxoethyl}-3b,4,4a,5-tetrahydro-1H-cyclopropa[3,4]cyclopenta[1,2-c]pyrazole-3-carbonyl]piperidin-4-yl}-N-methylacetamide]
49.6 nM | – | Cc1cccc(N2CCN(C(=O)Cn3nc(C(=O)N4CC[C@@H](O)[C@@H](O)C4)c4c3CCC4)CC2)c1C [Example 104, 2-{3-[(3S,4R)-3,4-dihydroxypiperidine-1-carbonyl]-5,6-dihydrocyclopenta[c]pyrazol-1(4H)-yl}-1-[4-(2,3-dimethylphenyl)piperazin-1-yl]ethan-1-one]
23.2 nM | – | Cc1cccc(N2CCN(C(=O)Cn3nc(C(=O)N4CC5C(CO)C5C4)c4c3CCC4)CC2)c1C (centres unmarked) [Example 131, 1-[4-(2,3-dimethylphenyl)piperazin-1-yl]-2-{3-[6-(hydroxymethyl)-3-azabicyclo[3.1.0]hexane-3-carbonyl]-5,6-dihydrocyclopenta[c]pyrazol-1(4H)-yl}ethan-1-one]
